Laboratory results: patent US11504365B2 (AVEO Pharmaceuticals, Inc., priority 2018, dated 2022)
Like-named read-outs stand apart in the source and are kept apart here.

Tests used:
[1] = tested on: refractory advanced renal cell carcinoma (RCC); assay: Randomized open-label Phase 3 study of tivozanib versus sorafenib, efficacy (PFS, OS, ORR, DoR); details: for median PFS: ITT population, independent radiologic review, stratified log rank p-value 0.0165; for median OS: ITT, two years after final patient enrollment, stratified log rank p-value 0.9501; for median PFS, subset receiving a prior check point inhibitor: prior checkpoint inhibitor at any time, tivozanib n=52, sorafenib n=46, unstratified Log-rank p-value 0.0616; for duration of response (DoR), 1st quartile: subjects with objective tumor response (PR or CR), not statistically significant; for 1-year probability of survival: subjects with prior checkpoint inhibitor, FIG. 5 (Kaplan-Meier analysis of IRR PFS)
Description: (§1) The randomization of subjects was stratified according to the International Metastatic Renal Cell Carcinoma Database Consortium (IMDC) risk category (favorable, intermediate, poor) and according to prior therapy which could be: 1) two prior VEGFR TKIs; 2) a check point inhibitor (e.g., a PD-1 or PDL-1 inhibitor) and a prior VEGFR TKI; or 3) a VEGFR TKI plus any other systemic agent. Once the strata were identified, treatment was randomly assigned to a subject with the strata using a complete permuted block design in an unblended fashion (open-label).
Cycles were repeated every 4 weeks.
(§2) Subjects were analyzed as randomized • 2. […] Subjects were analyzed as treated. • 3. […] Subjects were analyzed as treated.
(§3) The primary efficacy endpoint (PFS) and secondary efficacy endpoints (OS, ORR, and DoR) analyses were carried out using the ITT population. The primary efficacy endpoint of PFS also was analyzed using the PP population.
(§4) The IRR was the primary data source for the PFS analysis.
(§5) The primary analysis was carried out by using a stratified Log-Rank test, in which the stratification factors were IMDC risk category (favorable; intermediate; poor) and prior therapy (two prior VEGFR TKIs; a prior checkpoint inhibitor (PD-1 or PD1 L inhibitor) plus a prior VEGFR TKI; a prior VEGFR TKI plus any other systemic agent), and using a two-sided 5% significance level. The distribution of the PFS was estimated using the Kaplan-Meier method.
(§6) The DoR was analyzed using the same method as the progression-free survival analysis. DoR was only calculated for the subgroup of subjects with an objective tumor response (PR or CR).

[2] = tested on: refractory advanced renal cell carcinoma (RCC)
Description: as §1
Cycles were repeated every 4 weeks.
as §2, §3, §4, §5, §6

[3] = 1.5 mg/day, 3 weeks on, 1 week off, cited from earlier work
[4] = prior phase III clinical trial; cited from earlier work
[5] = cited from earlier work
[6] = subjects with prior therapy with a VEGFR TKI plus any other systemic agent
[7] = subjects with prior therapy with a checkpoint inhibitor and a prior VEGF TKI
[8] = subjects with prior therapy with two VEGFR TKIs

Structure (SMILES)	median PFS [1] [months]	median OS [1] [months]	median PFS, subset receiving a prior check point inhibitor [1] [months]	duration of response (DoR), 1st quartile [1] [months]	1-year probability of survival [1]	ORR [1, 6] [%]	ORR [1, 7] [%]	ORR [1, 8] [%]	ORR (CR + PR) [2] [%]	study subjects requiring a dose interruption ([3]; 8/272 subjects) [%]	study subjects requiring a dose reduction ([3]; 23/272 subjects) [%]	treatment interruptions and dose reductions due to AEs, compared with sorafenib [4]	difference in OS between tivozanib and sorafenib in subgroup analyses ([1]; ITT subgroups, Cox Model hazard ratios with 95% confidence intervals)	ORR (CR + PR) ([1]; all subjects, 31 PR/172 tivozanib, 14 PR/175 sorafenib) [%]	difference in OS between the two treatment groups ([1]; subset with prior checkpoint inhibitor, unstratified Log-rank p-value 0.8360)	subjects experiencing a dose limiting toxicity (DLT) ([5]; 2 mg/day tivozanib group)	maximum tolerated dose (MTD) ([5]; previous study KRN951/03-B01) [mg/day]	reversibility of toxicities upon stopping treatment ([5]; previous study KRN951/03-B01)
CNC(=O)c1cc(Oc2ccc(NC(=O)Nc3ccc(Cl)c(C(F)(F)F)c3)cc2)ccn1 [sorafenib, reference compound]	3.88	19.65	5.91	5.55	0.05	9.8	6.8	7.5	8.0	–	–	–	–	–	–	–	–	–
COc1cc2nccc(Oc3ccc(NC(=O)Nc4cc(C)on4)c(Cl)c3)c2cc1OC [tivozanib, N-{2-chloro-4-[(6,7-dimethoxy-4-quinolyl)oxy]-phenyl}-N′-(5-methyl-3-isoxazolyl)urea]	5.59	16.39	7.29	9.79	0.37	16.7	24.4	15.2	–	2.9	8.5	fewer treatment interruptions and dose reductions due to AEs	do not indicate a statistically significant difference in OS	18.0	no statistically significant differences	3 of 8	1.5	rapidly reversible
